The source of these data is US20250382344A1, “Soluble GLP1/GIP/NPY2 Receptor Triple Agonists” (Boehringer Ingelheim International GmH, priority 2024, published 2025).

Data set [1] concerns the target T1, hGIPR (Homo sapiens, UniProt P48546).
T1 construct: expressed in transfected cells; host or cells: CHO CRE-luciferase reporter cells
T1 sequence (P48546 22-466): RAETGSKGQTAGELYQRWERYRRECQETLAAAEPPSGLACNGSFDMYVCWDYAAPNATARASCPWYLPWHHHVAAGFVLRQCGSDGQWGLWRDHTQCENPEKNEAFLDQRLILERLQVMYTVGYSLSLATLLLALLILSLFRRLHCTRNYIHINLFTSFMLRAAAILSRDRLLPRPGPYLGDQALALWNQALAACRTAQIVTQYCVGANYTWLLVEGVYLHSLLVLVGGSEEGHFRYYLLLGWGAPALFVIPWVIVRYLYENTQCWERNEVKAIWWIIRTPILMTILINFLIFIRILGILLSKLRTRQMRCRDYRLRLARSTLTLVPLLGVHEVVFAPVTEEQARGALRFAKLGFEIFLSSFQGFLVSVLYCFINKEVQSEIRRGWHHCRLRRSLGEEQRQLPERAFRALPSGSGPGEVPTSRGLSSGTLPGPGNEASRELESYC
In words: hGIPR CreLuc assay in 0.5% and 100% plasma (CHO CRE-luciferase reporter cells). Particulars: 0.5% human plasma, read-out: hGIPR 0.5% hP. The format is cell-based.

In data set [2] the target is T2, hNPY2R (Homo sapiens, UniProt P49146).
T2 construct: expressed in transfected cells; host or cells: HEK-293 CRE-luciferase reporter cells
T2 sequence (P49146 1-381): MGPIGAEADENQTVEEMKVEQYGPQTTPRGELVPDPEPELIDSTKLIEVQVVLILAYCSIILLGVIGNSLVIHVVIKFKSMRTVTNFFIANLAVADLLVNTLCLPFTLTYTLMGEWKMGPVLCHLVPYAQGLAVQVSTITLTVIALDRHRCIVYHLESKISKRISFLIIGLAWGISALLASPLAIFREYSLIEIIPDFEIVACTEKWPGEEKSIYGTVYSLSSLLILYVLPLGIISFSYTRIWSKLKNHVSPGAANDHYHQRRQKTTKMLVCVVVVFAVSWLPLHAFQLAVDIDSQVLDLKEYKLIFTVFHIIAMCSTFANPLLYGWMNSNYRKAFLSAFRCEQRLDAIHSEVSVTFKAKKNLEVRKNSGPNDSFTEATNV
In words: hNPY2R CreLuc assay in 0.5% and 100% plasma (HEK-293 CRE-luciferase reporter cells). The format is cell-based. As to conditions: HEK-293 reporter cells. The source says:
CHO and HEK-293 recombinant cell lines express a luciferase reporter gene under control of the CAMP responsive element (CRE). As a second recombinant protein the GLP-1 and NPY2 receptors were expressed in the reporter gene HEK cells, and the GIP receptor was expressed in the reporter gene CHO cells, respectively. Stimulation of these recombinant cells with an agonist leads to an increase of intracellular CAMP levels. In the presence of CAMP, the transcription factor CRE binding protein (CREB) binds to the CRE and to the CREB binding protein (CBP), which leads to transcription of the luciferase reporter gene. Peptides upon serial-dilution in 100% DMSO were transferred into 384-well assay plates with 5 μl pre-dispensed assay buffer (1×HBSS, 20 mM HEPES, pH7.4 supplemented with 0.5% human plasma) using acoustic dispensing on a Labcyte ECHO. Cryo-preserved transgenic reporter gene cells were thawed in assay buffer. 20 μl (10.000 cells/well) were added to the plate with the peptides and incubated for 4 hours at 37° C. in a humidified incubator. Following incubation, assay plates are equilibrated to room temperature, followed by addition of 25 μl of Bright-Glo™ Luciferase reagent, incubation at room temperature for 10 minutes and analysis of luminescence (Envision Reader). […] EC50 values were calculated by non-linear regression using sigmoid concentration-response with variable slope.
The same assays were run in the presence of 100% plasma with no additional buffer constituents.

A short description of data set [3]: Solubility in 0.1 M phosphate buffer at pH 7. The format is physicochemical. Particulars: 0.1 M phosphate buffer at pH 7, 10 mg/mL final peptide concentration, shaking 2 hours at room temperature, peptides as TFA-salts; measured sample pH 6.5-7.0.
[4] abbreviates: 0.5% human plasma, read-out: hNPY2R 0.5% hP.
The mark [5] stands for this setting: 100% human plasma, read-out: hNPY2R 100% hP.

Like-named read-outs stand apart in the source and are kept apart here.

As to `CC[C@H](C)[C@H](NC(=O)[C@H](CO)NC(=O)[C@H](Cc1ccc(O)cc1)NC(=O)[C@H](CC(=O)O)NC(=O)[C@H](CO)NC(=O)[C@@H](NC(=O)[C@H](Cc1ccccc1)NC(=O)[C@@H](NC(=O)CNC(=O)[C@H](CCC(=O)O)NC(=O)C(C)(C)NC(=O)[C@@H](N)Cc1ccc(O)cc1)[C@@H](C)O)[C@@H](C)O)C(=O)N[C@@H](C)C(=O)N[C@@H](CC(C)C)C(=O)N[C@@H](CCC(=O)O)C(=O)N[C@@H](CCCCN)C(=O)N[C@@H](CCC(N)=O)C(=O)N[C@@H](C)C(=O)N[C@@H](CCC(N)=O)C(=O)NC(C)(C)C(=O)N[C@@H](C)C(=O)N[C@@H](Cc1ccccc1)C(=O)N[C@H](C(=O)N[C@@H](CCCNC(=N)N)C(=O)N[C@@H](Cc1c[nH]cn1)C(=O)N[C@@H](CC(C)C)C(=O)N[C@H](C(=O)N[C@@H](CC(N)=O)C(=O)N[C@@H](CCCCNC(=O)CC[C@H](NC(=O)CC[C@H](NC(=O)CC[C@H](NC(=O)CC[C@H](NC(=O)CC[C@H](NC(=O)CC[C@H](NC(=O)CCCCCCCCCCCCCCCCCCC(=O)O)C(=O)O)C(=O)O)C(=O)O)C(=O)O)C(=O)O)C(=O)O)C(=O)NC(C)(C)C(=O)N[C@H](C(=O)N[C@@H](CCCNC(=N)N)C(=O)N[C@@H](CCC(N)=O)C(=O)N[C@@H](CCCNC(=N)N)C(=O)N[C@@H](Cc1ccc(O)cc1)C(N)=O)[C@@H](C)O)[C@@H](C)CC)C(C)C` [Compound 29, Y-Aib-E-G-T-F-T-S-D-Y-S-I-A-L-E-K-Q-A-Q-Aib-A-F-V-R-H-L-I-N-K(1,3)-Aib-T-R-Q-R-Y-NH2.C20DA-gGlu-gGlu-gGlu-gGlu-gGlu-gGlu(1,2)], the values for the EC50 in data set [1] and in data set [2] (setting [4]) were 0.8 nM and 41.3 nM, respectively. Moreover, in data set [3], the solubility at 2 h was 10 mg/mL.
As for `CC[C@H](C)[C@H](NC(=O)[C@H](CC(C)C)NC(=O)[C@H](Cc1c[nH]cn1)NC(=O)[C@H](CCCNC(=N)N)NC(=O)[C@@H](NC(=O)[C@H](Cc1ccccc1)NC(=O)[C@H](C)NC(=O)C(C)(C)NC(=O)[C@H](CCC(N)=O)NC(=O)[C@H](C)NC(=O)[C@H](CCC(N)=O)NC(=O)[C@H](CCCCN)NC(=O)[C@H](CCC(=O)O)NC(=O)[C@H](CC(C)C)NC(=O)C(C)(C)NC(=O)[C@@H](NC(=O)[C@H](CO)NC(=O)[C@H](Cc1ccc(O)cc1)NC(=O)[C@H](CC(=O)O)NC(=O)[C@H](CO)NC(=O)[C@@H](NC(=O)[C@H](Cc1ccccc1)NC(=O)[C@@H](NC(=O)CNC(=O)[C@H](CCC(=O)O)NC(=O)C(C)(C)NC(=O)[C@@H](N)Cc1ccc(O)cc1)[C@@H](C)O)[C@@H](C)O)[C@@H](C)CC)C(C)C)C(=O)N[C@@H](CC(N)=O)C(=O)N[C@@H](CCCCNC(=O)CC[C@H](NC(=O)CC[C@H](NC(=O)CC[C@H](NC(=O)CC[C@H](NC(=O)CC[C@H](NC(=O)CC[C@H](NC(=O)[C@H]1CC[C@H](CNC(=O)CCCCCCCCCCCCCCCCC(=O)O)CC1)C(=O)O)C(=O)O)C(=O)O)C(=O)O)C(=O)O)C(=O)O)C(=O)NC(C)(C)C(=O)N[C@H](C(=O)N[C@@H](CCCNC(=N)N)C(=O)N[C@@H](CCC(N)=O)C(=O)N[C@@H](CCCNC(=N)N)C(=O)N[C@@H](Cc1ccc(O)cc1)C(N)=O)[C@@H](C)O` [Compound 31, Y-Aib-E-G-T-F-T-S-D-Y-S-I-Aib-L-E-K-Q-A-Q-Aib-A-F-V-R-H-L-I-N-K(1,3)-Aib-T-R-Q-R-Y-NH2.C18DA-TRX-gGlu-gGlu-gGlu-gGlu-gGlu-gGlu(1,2)], the figures for the EC50 in data set [1] and in data set [2] (setting [5]) were 0.6 nM and 131 nM, respectively. Besides, in data set [3], the solubility at 2 h came to 4.3 mg/mL.
Take `CC[C@H](C)[C@H](NC(=O)[C@H](CC(C)C)NC(=O)[C@H](Cc1c[nH]cn1)NC(=O)[C@H](CCCNC(=N)N)NC(=O)[C@@H](NC(=O)[C@H](Cc1ccccc1)NC(=O)[C@H](CCC(=O)O)NC(=O)C(C)(C)NC(=O)[C@H](CCC(N)=O)NC(=O)[C@H](C)NC(=O)[C@H](CCC(N)=O)NC(=O)[C@H](CCCCN)NC(=O)[C@H](CCC(=O)O)NC(=O)[C@H](CC(C)C)NC(=O)C(C)(C)NC(=O)[C@@H](NC(=O)[C@H](CO)NC(=O)[C@H](Cc1ccc(O)cc1)NC(=O)[C@H](CC(=O)O)NC(=O)[C@H](CO)NC(=O)[C@@H](NC(=O)[C@H](Cc1ccccc1)NC(=O)[C@@H](NC(=O)CNC(=O)[C@H](CCC(=O)O)NC(=O)C(C)(C)NC(=O)[C@@H](N)Cc1ccc(O)cc1)[C@@H](C)O)[C@@H](C)O)[C@@H](C)CC)C(C)C)C(=O)N[C@@H](CC(N)=O)C(=O)N[C@@H](CCCCNC(=O)[C@@H](N)CCCCNC(=O)[C@H](CCC(=O)O)NC(=O)CC[C@H](NC(=O)CC[C@H](NC(=O)CC[C@H](NC(=O)CC[C@H](NC(=O)CC[C@H](NC(=O)CC[C@H](NC(=O)CCCCCCCCCCCCCCCCC(=O)O)C(=O)O)C(=O)O)C(=O)O)C(=O)O)C(=O)O)C(=O)O)C(=O)N[C@@H](CC(C)C)C(=O)N[C@H](C(=O)N[C@@H](CCCNC(=N)N)C(=O)N[C@@H](CCC(N)=O)C(=O)N[C@@H](CCCNC(=N)N)C(=O)N[C@@H](Cc1ccc(O)cc1)C(N)=O)[C@@H](C)O` [Compound 32, Y-Aib-E-G-T-F-T-S-D-Y-S-I-Aib-L-E-K-Q-A-Q-Aib-E-F-V-R-H-L-I-N-K(1,3)-L-T-R-Q-R-Y-NH2.C18DA-gGlu-gGlu-gGlu-gGlu-gGlu-gGlu-Glu-eLys(1,2)]: the EC50 in data set [1] is 0.5 nM; in data set [2] (setting [4]), 17.1 nM. In data set [3], the solubility at 2 h is 9.1 mg/mL.
`CC[C@H](C)[C@H](NC(=O)[C@H](CC(C)C)NC(=O)[C@H](Cc1c[nH]cn1)NC(=O)[C@H](CCCNC(=N)N)NC(=O)[C@@H](NC(=O)[C@H](Cc1ccccc1)NC(=O)[C@H](C)NC(=O)C(C)(C)NC(=O)[C@H](CCC(N)=O)NC(=O)[C@H](C)NC(=O)[C@H](CCC(N)=O)NC(=O)[C@H](CCCCN)NC(=O)[C@H](CCC(=O)O)NC(=O)[C@H](CC(C)C)NC(=O)C(C)(C)NC(=O)[C@@H](NC(=O)[C@H](CO)NC(=O)[C@H](Cc1ccc(O)cc1)NC(=O)[C@H](CC(=O)O)NC(=O)[C@H](CO)NC(=O)[C@@H](NC(=O)[C@H](Cc1ccccc1)NC(=O)[C@@H](NC(=O)CNC(=O)[C@H](CCC(=O)O)NC(=O)C(C)(C)NC(=O)[C@@H](N)Cc1ccc(O)cc1)[C@@H](C)O)[C@@H](C)O)[C@@H](C)CC)C(C)C)C(=O)N[C@@H](CC(N)=O)C(=O)N[C@@H](CCCCNC(=O)CC[C@H](NC(=O)CC[C@H](NC(=O)CC[C@H](NC(=O)CC[C@H](NC(=O)CC[C@H](NC(=O)CC[C@H](NC(=O)CC[C@H](NC(=O)CCCCCCCCCCCCCCCCC(=O)O)C(=O)O)C(=O)O)C(=O)O)C(=O)O)C(=O)O)C(=O)O)C(=O)O)C(=O)NC(C)(C)C(=O)N[C@H](C(=O)N[C@@H](CCCNC(=N)N)C(=O)N[C@@H](CCC(N)=O)C(=O)N[C@@H](CCCNC(=N)N)C(=O)N[C@@H](Cc1ccc(O)cc1)C(N)=O)[C@@H](C)O` [Compound 38, Y-Aib-E-G-T-F-T-S-D-Y-S-I-Aib-L-E-K-Q-A-Q-Aib-A-F-V-R-H-L-I-N-K(1,3)-Aib-T-R-Q-R-Y-NH2.C18DA-gGlu-gGlu-gGlu-gGlu-gGlu-gGlu-gGlu(1,2)]: the EC50 stood at 0.6 nM in data set [1] and 141 nM in data set [2] (setting [5]). For the same molecule, in data set [3], the solubility at 2 h turned out to be 4.3 mg/mL.
